Experimental findings from patent US12018023B2 (NERVIANO MEDICAL SCIENCES S.R.L., priority 2018, dated 2024) are described below.

Assay [1] concerns the target T1, IDH1^R132H homodimer enzyme (Homo sapiens, UniProt O75874, R132H).
T1 construct: purchased not specified
Description: NADPH depletion assay, IDH1 R132H. The assay is classed as biochemical. The essentials:
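IDH1 R132H enzyme (8 nM as diluted) in Tris-HCl pH 7.6 with 10 mM MgCl2, 0.001% Triton X-100 and 4 mM β-mercaptoethanol is preincubated 15 min at RT with compound. Substrate mix (12 uM NADPH, 3.4 mM α-ketoglutarate) is added for 60 min; remaining NAD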

The target of assay [2] is T2, IDH1^R132C (Homo sapiens, UniProt O75874, R132C).
T2 construct: purchased not specified
T2 sequence (O75874 whole entry R132C): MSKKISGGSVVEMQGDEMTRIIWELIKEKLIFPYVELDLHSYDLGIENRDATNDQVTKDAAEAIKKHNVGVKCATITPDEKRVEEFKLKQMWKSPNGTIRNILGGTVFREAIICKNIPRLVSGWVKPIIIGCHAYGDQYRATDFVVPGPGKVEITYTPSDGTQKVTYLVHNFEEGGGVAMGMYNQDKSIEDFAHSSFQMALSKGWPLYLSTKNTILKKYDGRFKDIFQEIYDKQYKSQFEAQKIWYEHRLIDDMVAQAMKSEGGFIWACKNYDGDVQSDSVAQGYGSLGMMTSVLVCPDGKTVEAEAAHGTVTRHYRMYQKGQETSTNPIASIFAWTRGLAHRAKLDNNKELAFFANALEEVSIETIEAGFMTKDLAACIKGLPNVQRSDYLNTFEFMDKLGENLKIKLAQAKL
Description: NADPH depletion assay, IDH1 R132C. The assay is classed as biochemical. The essentials: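 IDH1 R132C (2 nM) preincubated 15 min at RT with compound in Tris-HCl pH 7.6/MgCl2 buffer, then 60 min RT with NADPH and 0.14 mM alpha-ketoglutarate. Remaining NADPH read by diaphorase/resazurin fluorescence (Ex544/Em590).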

The target in assay [3] is T3, IDH2^R172K (Homo sapiens, UniProt P48735, R172K).
T3 construct: purchased not specified
T3 sequence (P48735 40-452 R172K): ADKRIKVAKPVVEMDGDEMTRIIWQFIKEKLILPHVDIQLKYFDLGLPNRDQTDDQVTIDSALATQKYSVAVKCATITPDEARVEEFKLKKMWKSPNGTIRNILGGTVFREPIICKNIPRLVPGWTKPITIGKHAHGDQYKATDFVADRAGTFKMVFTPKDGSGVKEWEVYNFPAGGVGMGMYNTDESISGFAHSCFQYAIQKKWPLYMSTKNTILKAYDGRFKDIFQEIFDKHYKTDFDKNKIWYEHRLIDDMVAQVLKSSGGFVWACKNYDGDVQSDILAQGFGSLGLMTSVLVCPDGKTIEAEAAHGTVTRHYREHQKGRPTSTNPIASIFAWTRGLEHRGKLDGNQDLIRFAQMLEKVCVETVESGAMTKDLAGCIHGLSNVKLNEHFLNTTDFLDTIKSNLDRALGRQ
Description: NADPH depletion assay, IDH2 R172K. The assay is classed as biochemical. The essentials: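 IDH2 R172K (16 nM) was preincubated 15 min at RT with compound (1:3 series from 1 mM in DMSO) in Tris pH 7.6/NaCl/MgCl2/Triton/β-mercaptoethanol. The reaction ran 60 min at RT with 0.55 mM alpha-ketoglutarate and NADPH (12 μM in the substrate mix). Remaining NADPH was read with diaphorase/resazurin fluorescence at Ex544/Em590.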

Assay [4] deals with T4, IDH1WT enzyme (Homo sapiens, UniProt O75874).
T4 construct: purchased not specified
T4 sequence (O75874 whole entry): as the sequence (O75874 whole entry R132C) above, with C132R counted along it
In words: Enzymatic assay for IDH1 wild-type (NADPH forming assay). In kind it is biochemical. The essentials: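 Compounds (10-point 1:3 series from 1 mM in DMSO stock) preincubated 15 min at RT with 0.016 nM enzyme in Tris-HCl pH 7.6, NaCl, MgCl2, Triton X-100, β-mercaptoethanol. Started with 400 μM NADP+, 40 μM isocitrate, diaphorase, 7 μM resazurin (Substrate Mix concentrations); resorufin fluorescence Ex544/Em590 read continuously.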

The test system of assay [5] is U87MG_IDH1R132H. In words: Cellular 2-HG production assay, U87-MG-IDH1 R132H. Conditions: inhibition of 2HG production, 72 hr incubation, LC-MS/MS. In kind it is cell-based. The essentials: (§1)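 Cells in E-MEM/10% FCS (G418 500 μg/mL for the transfected U87-MG line) at 500 per well got compound 24 h after seeding and were incubated 72 h at 37 °C. Medium 2-HG was measured by LC-MS/MS with 2-HG-d3 internal standard; IC50 came from sigmoidal fitting versus controls.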

Assay [6] has as its system HT-1080 (IDH1^R132C). In words: Cellular 2-HG production assay, HT-1080. In kind it is cell-based. The note with it: Homo sapiens, HT-1080, 72 h, inhibition of 2HG production, 72 hr incubation, LC-MS/MS; read-out: HT1080 2-HG IC50. Summed up:
as §1

T1 sequence (O75874 whole entry R132H): as the sequence (O75874 whole entry R132C) above, with C132H counted along it

Regarding `CC(C)[C@H](C)n1c(=O)ccc2cnc(N[C@@H](C)c3ccc(CN4CCC(F)(F)CC4)c(F)c3)nc21` [cpd 67, 2-{[(1S)-1-{4-[(4,4-difluoropiperidin-1-yl)methyl]-3-fluorophenyl}ethyl]amino}-8-[(2S)-3-methylbutan-2-yl]pyrido[2,3-d]pyrimidin-7(8H)-one], the IC50 (as a rule, the concentration that gives 50% inhibition) in assay [1] turned out to be 37 nM; in assay [2], 15 nM; in assay [3], 7360 nM; in assay [4], 1710 nM; in assay [5], 200 nM; in assay [6], 67 nM.

As for `C=CC(=O)N1CCN([C@@H](CC2CC2)c2ccc([C@H](C)Nc3ncc4ccc(=O)n(C(C)C)c4n3)cc2)CC1` [cpd 230, 2-{[(1S)-1-{4-[(1S)-1-(4-acryloylpiperazin-1-yl)-2-cyclopropylethyl]phenyl}ethyl]amino}-8-(propan-2-yl) pyrido [2,3-d]pyrimidin-7(8H)-one], the half-inhibitory concentration (IC50) in assay [1] was 1 nM; in assay [2], 1 nM; in assay [3], 11 nM; in assay [4] it was 39 nM; in assay [5] it was 0.4 nM; in assay [6], 0.4 nM.

As for `C[C@H](Nc1ncc2ccc(=O)n(CC(C)(C)C)c2n1)c1ccc(CN2CCCC(F)(F)C2)cc1` [cpd 117, 2-{[(1S)-1-{4-[(3,3-difluoropiperidin-1-yl)methyl]phenyl}ethyl]amino}-8-(2,2-dimethylpropyl)pyrido[2,3-d]pyrimidin-7(8H)-one], the IC50 in assay [1] is 55 nM; in assay [2], 29 nM; in assay [3], 5510 nM; in assay [4], 1580 nM; in assay [5], 177 nM; in assay [6], 155 nM.

Take `C=CC(=O)N1CCN(Cc2ccc([C@H](C)Nc3ncc4ccc(=O)n(CC(C)(C)CO)c4n3)cc2)CC1` [cpd 140, 2-{(S)-1-[4-(4-Acryloyl-piperazin-1-ylmethyl)-phenyl]-ethylamino}-8-(3-hydroxy-2,2-dimethyl-propyl)-8H-pyrido [2,3-d]pyrimidin-7-one]: the IC50 worked out at 249 nM in assay [1]; 115 nM in assay [2]; 3230 nM in assay [3]; 4850 nM in assay [4]; 10 nM in assay [5]; 108 nM in assay [6].

For the compound `C=CC(=O)N1CCN([C@H](CC)c2ccc([C@H](C)Nc3ncc4ccc(=O)n(C(C)C)c4n3)cc2)CC1` [cpd 228, 2-{[(1S)-1-{4-[(1R)-1-(4-acryloylpiperazin-1-yl)propyl]phenyl}ethyl]amino}-8-(propan-2-yl)pyrido[2,3-d]pyrimidin-7(8H)-one], the IC50 in assay [1] stood at 2 nM; in assay [2], 2 nM; in assay [3], 25 nM; in assay [4], 27.3 nM; in assay [5], 0.6 nM; in assay [6] it was 0.8 nM.
